From article PMC11643612, “Insights into the Metabolism, Disposition, and Quantitative Profile of mGlu5 NAM AE90015 with Metabolite Identification and a Novel Integration Method” (Molecules, 2024)

Legend:
mGlu4 = conditions: cited from earlier work
mGlu7 = conditions: cited from earlier work
[1] = in vivo rat oral dose study: metabolism, excretion and disposition (plasma, tissues, urine, bile; UV/mass integration)
Protocol: The in vivo rat studies were performed following the administration of a 30 mg/kg dose of AE90015. Plasma, urine, and tissue samples were collected from two rats in a metabolic cage, and bile samples were collected from two bile duct-cannulated rats. The urine and bile samples were collected from 0 to 24 h post-administration. The tissues and plasma samples were collected at 24 h post-administration. This study was carried out to explore all metabolites, particularly the phase II metabolites, and to identify the metabolites being excreted and understand their excretion pathways. Additionally, determining whether AE90015 itself is directly cleared through urine and bile is crucial for explaining its pharmacokinetic clearance value in rats.
For quantification, a photodiode array detector connected to UPLC in parallel to the LTQ-Obitrap mass spectrometer, detecting at 260 nm absorption, and combined with mass response was used to quantitatively measure, sometimes with compromised accuracy, the metabolites and AE90015 in all of the samples. For well-separated metabolites in the liquid chromatogram, their UV 260 nm absorption peak integration represented their molar response. When the metabolites’ UV peaks overlap with each other, UV integration is not feasible, but the integration of extracted metabolite mass is much easier. […] It was assumed that each metabolite’s UV integration-to-mass integration ratio is equal, allowing for a good approximation within the same category of metabolites. This assumption was validated by many of the metabolites measured in this study and previous studies. When no UV integration is available, multiplying the mass integration by the […] yielded in the UV integration.
The distribution of normalized integration values for the parent drug AE90015 and its metabolites in plasma, urine, bile, and tissues, including liver, brain, and kidney, is summarized in Table 1. […] In this experiment, all amounts of AE90015 and its metabolites in the plasma, urine, and bile samples were obtained from UV responses, which were adjusted to their total volume in the rat. For the liver, brain, and kidney tissues, these amounts were normalized to tissue weight. The sample dilution factors used in the analysis were also converted back.
The values in Table 1 represent the relative molar amounts of each metabolite of AE90015 remaining in the plasma and tissues or excreted in urine or bile 24 h post-dose. These values were derived either directly from UV 260 nm integration or from mass response integration, multiplied by the UV/mass ratio for each metabolite category, and further adjusted to plasma, urine volume, or tissue weight. The details of the calculation methods are provided in Section 3.
Two rats weighing 0.266 and 0.252 kg received 30 mg/kg oral doses of AE90015, formulated with hydroxypropyl-beta-cyclodextrin, for the bile collection study, which was carried out for 0–24 h, and a total of 33.6 mL of bile was pooled together from the 2 rats. The two rats used for the bile collection study underwent bile duct cannulation surgery 2 days before the AE90015 dosing and bile collection. Before the surgery, the rats were anesthetized with ketamine (43 mg/kg body weight) and xylazine (8.7 mg/kg body weight). After surgical skin preparation, two catheters (intestinal and biliary) were passed subcutaneously from the dorsal scapular region into the abdomen. Through ventral midline abdominal incision, the bile duct was isolated and ligated, and the biliary catheter was inserted into the bile duct and secured. The intestinal catheter tip was placed into the duodenum just distal to the entry point of the bile duct and secured by the placement of a purse string suture. […]

human mGlu5 receptor = system: human mGlu5 receptor; parameters: method as in PMID 34469715; conditions: NAM; cited from earlier work
[2] = rat PK, in-house experiment; conditions: in vivo
mGlu3 = conditions: cited from earlier work
mGlu2 = conditions: cited from earlier work
79 other targets = conditions: cited from earlier work
mGlu1 = conditions: cited from earlier work
[3] = rats (n = 2), 24 h after 30 mg/kg oral, % of all AE90015-related material

Cc1cncc(C(=O)NC23CC4CC(CC(NC(=O)c5ccccn5)(C4)C2)C3)n1 [AE90015]
efficacy or affinity for mGlu4 (mGlu4): no significant efficacy or affinity | efficacy or affinity for mGlu7 (mGlu7): no significant efficacy or affinity | Excrete from Bile, normalized relative molar amount ([1]; bile duct-cannulated rats (n = 2), bile 0-24 h after 30 mg/kg oral, % of all AE90015-related material): 0.39% | share of total clearance by mono-oxidation (primary clearance pathway) ([1]; rat, 30 mg/kg oral, 24 h): 96% | direct excretion via renal and bile routes ([1]; rat, 30 mg/kg oral, 24 h, unchanged parent): 0.5% | Remain in Brain, normalized relative molar amount [1, 3]: 0.66% | Remain in Kidney, normalized relative molar amount [1, 3]: 0.16% | Remain in Liver, normalized relative molar amount [1, 3]: 0.98% | Remain in Plasma, normalized relative molar amount [1, 3]: 1.47% | Excrete from Urine, normalized relative molar amount ([1]; rats (n = 2), urine 0-24 h after 30 mg/kg oral, % of all AE90015-related material): 0.10% | affinity (human mGlu5 receptor): 18.5 nM | clearance [2]: 38 mL/min/kg | efficacy or affinity for mGlu3 (mGlu3): no significant efficacy or affinity | efficacy or affinity for mGlu2 (mGlu2): no significant efficacy or affinity | selectivity for mGlu5, preference compared to the 79 other targets tested (79 other targets): over 1000 fold | efficacy or affinity for mGlu1 (mGlu1): no significant efficacy or affinity
